The numbers were not newly measured in patent publication US5281578A, “Gallium compounds” (Johnson Matthey Public Limited Company, priority 1992, dated 1994), which cites them from elsewhere.

Structures are written as SMILES. Read-outs that look alike come from different tables or passages of the source.

For data set [1] the following is noted: pH 4.5-7.

On to `[Ga+3]` [gallium(III) aquo-ion], for which the “absorption from the gastro-intestinal tract” value in data set [1] was “very poorly absorbed”.

For `[Ga]` [gallium], the renal toxicity result with renal toxicity (iv bolus) is reported as “dose-limiting”; with renal toxicity (seven day continuous iv infusion, cancer-associated hypercalcemia), “no renal toxicity”.
